Source: patent US7230028B2, “Dimeric compounds and their use as anti-viral agents” (priority 2001, dated 2007)
Values after ≈ are worked out from the molar mass of the structure shown. Values joined by “and” are separate entries in the source; they are usually repeats but may differ in a detail not shown here. Identical values can stand only once. Counter-ions that a name gives are not always drawn. Like-named read-outs stand apart in the source and are kept apart here.

Legend:
[1] = system: A/Sydney/5/97 BVLV015 (H3N2); experiment: Plaque reduction assay (PRA) in MDCK cells; type: cell-based, influenza A H3N2; conditions: A/Sydney/5/97 (H3N2)
Description: (§1) Madin Darby Canine Kidney (MDCK) cells are seeded into six well tissue culture plates and grown to confluency via standard methods. Influenza viruses are diluted in a minimal volume of phosphate buffered saline supplemented with 0.2% bovine serum albumin to yield an estimated titre of 50–100 plaque forming units (pfu) per well. After adsorption to the MDCK cells for one hour at 37° C. in a 5% CO2 atmosphere the viral inocula is aspirated and replaced with viral growth media (minimal Eagle's media supplemented with BSA, trypsin and insulin/transferrin/selenium at optimal concentrations) containing sufficient agar or agarose (generally 1–2%) to cause the media to gel at room temperature and at 37° C. in a 5% CO2 atmosphere until plaques develop (generally 2–4 days). Plaques can be visualised with a suitable stain (e.g. 0.4% crystal violet in formal saline) before counting.

[2] = system: A/New Caledonia/20/99 BVLV008 (H1N1); experiment: Plaque reduction assay (PRA) in MDCK cells; type: cell-based; conditions: for EC50: Influenza A virus
A/WSN/33 BVLV09 (H1N1) = experiment: Plaque reduction assay (PRA) in MDCK cells; type: cell-based, influenza A H1N1; conditions: A/WSN/33 (H1N1)
Description: as §1

B/Hong Kong/5/72 BVLV012 = experiment: Plaque reduction assay (PRA) in MDCK cells; type: cell-based, influenza B; conditions: for EC50: Influenza B virus, MDCK, read-out: EC50 PRA B/HongK
Description: as §1

[3] = system: B/Yamanashi/166/98 BVLV007; experiment: Plaque reduction assay (PRA) in MDCK cells; type: cell-based; conditions: for EC50: Influenza B virus, MDCK
[4] = Rat lung retention assay (intra-tracheal dosing); type: in vivo; conditions: for Mean (cmpd) / (cmpd): 0.1 mg/kg intra-tracheal; for (cmpd) / PCT AU01/01128 compound 3 ng/g: individual animal; for (cmpd): bis(trifluoroacetic acid salt)
Description: Rodents are anaesthetised and dosed with compound of interest by the intra-tracheal route at a dose volume of 0.8 ml/kg. The rodent is then held in the vertical position until full recovery is achieved. […] Any analytical method suitable for detection of this type of compound may be used. The time at which levels of compound fall below the sensitivity of the analytical techniques identified will determine the residency time of the compound in lung tissue.
Please note that all experiments included a co-dosed internal standard, namely compound 3 of International Patent Publication No. WO 02/20514, to permit comparison. The data are expressed as a ratio with respect to this compound, the structure of which is shown below.

[5] = system: A/Panama/2007/99 BVLV008 (H3N2); experiment: Plaque reduction assay (PRA) in MDCK cells; type: cell-based; conditions: for EC50: Influenza A virus
Influenza B/Harbin/7/95 = experiment: Cytopathic effect (CPE) assay, inhibition of influenza virus replication in MDCK cells; type: cell-based
Influenza A/Sydney/5/97 = experiment: as above; type: cell-based; conditions: up to 72 hours, MTT
[6] = system: A/Bayern/7/95 BVL006 (H1N1); experiment: Plaque reduction assay (PRA) in MDCK cells; type: cell-based, influenza A H1N1; conditions: A/Bayern/7/95 (H1N1)
Description: as §1

B/Victoria/1/67 = experiment: Plaque reduction assay (PRA) in MDCK cells; type: cell-based, influenza B; conditions: bis(trifluoroacetic acid salt)
[7] = system: A/Victoria/3/75 BVLV017 (H3N2); experiment: Plaque reduction assay (PRA) in MDCK cells; type: cell-based; conditions: Influenza A virus, MDCK; plaque reduction, A/Victoria/3/75 (H3N2); read-out: EC50 PRA A/Vic
[8] = rat, in vivo, 0.1 mg/kg, Mean (cmpd) ng/g
[9] = rat lung, co-dosed internal standard, 48 hrs

## CC(=O)N[C@H]1[C@H]([C@H](OC(=O)NCCCCCCCCCCCCCNC(=O)O[C@@H]([C@@H]2OC(C(=O)O)=C[C@H](NC(=N)N)[C@H]2NC(C)=O)[C@H](O)CO)[C@H](O)CO)OC(C(=O)O)=C[C@@H]1NC(=N)N [Example 4, (2R,3R,4S)-3-(acetylamino)-2-{(1R,21R,22R)-21-((2R,3R,4S)-3-(acetylamino)-4-{[amino(imino)methyl]amino}-6-carboxy-3,4-dihydro-2H-pyran-2-yl)-1-[(1R)-1,2-dihydroxyethyl]-22,23-dihydroxy-3,19-dioxo-2,20-dioxa-4,18-diazatricos-1-yl}-4-{[amino(imino)methyl]amino}-3,4-dihydro-2H-pyran-6-carboxylic acid bis(trifluoroacetic acid salt)]
[1]; Influenza A virus, MDCK, read-out: EC50 PRA A/Syd
  EC50: < 0.0001 ng/mL
[2]; H1N1, MDCK, read-out: EC50 PRA A/New, plaque reduction, A/New Caledonia/20/99 (H1N1)
  EC50: 0.043 ng/mL
A/WSN/33 BVLV09 (H1N1); Influenza A virus, MDCK
  EC50: < 0.0001 ng/mL
B/Hong Kong/5/72 BVLV012
  EC50: 0.06 ng/mL
[3]; read-out: EC50 PRA B/Yam, plaque reduction, B/Yamanashi/166/98
  EC50: < 0.0001 ng/mL
[4]; rat, in vivo, 0.1 mg/kg, 48 h
  Ratio Mean (lung) (cmpd)/PCT AU01/01128 compound 3: 1.70
[4]; rat, in vivo, 0.1 mg/kg, 168 h
  Ratio Mean (lung) (cmpd)/PCT AU01/01128 compound 3: 1.48
[4]; [8]
  concentration at 48 h: 1770 ng/g
  concentration at 168 h: 756 ng/g
[5]; H3N2, MDCK, read-out: EC50 PRA A/Pan, plaque reduction, A/Panama/2007/99 (H3N2)
  EC50: < 1e-05 ng/mL
Influenza B/Harbin/7/95; up to 72 hours, MTT
  ID50 B/Harbin/7/95: 0.0001 µg/mL
Influenza A/Sydney/5/97
  ID50 A/Sydney/5/97: 0.1 ng/mL

## CC(=O)N[C@H]1[C@H]([C@H](OC(=O)NCCCCCCCCCCCCCCNC(=O)O[C@@H]([C@@H]2OC(C(=O)O)=C[C@H](NC(=N)N)[C@H]2NC(C)=O)[C@H](O)CO)[C@H](O)CO)OC(C(=O)O)=C[C@@H]1NC(=N)N.O=C(O)C(F)(F)F.O=C(O)C(F)(F)F [Example 5]
[1]
  EC50 PRA A/Syd: 0.032 ng/mL
[2]; plaque reduction, A/New Caledonia/20/99 (H1N1)
  EC50 PRA A/New: <0.0001 ng/mL
A/WSN/33 BVLV09 (H1N1)
  EC50 PRA A/WSN: <0.0001 ng/mL
[6]
  EC50 PRA A/Bay: <0.0001 ng/mL
B/Hong Kong/5/72 BVLV012
  EC50 PRA B/HongK: 0.37 ng/mL
B/Victoria/1/67
  EC50 PRA B/Vic: 0.1 ng/mL
[3]; plaque reduction, B/Yamanashi/166/98
  EC50 PRA B/Yam: <0.0001 ng/mL
[4]; rat lung, 48 hrs
  Mean (cmpd): 4803 ng/g
[4]; rat lung, 168 hrs
  Mean (cmpd): 1798 ng/g
[4]; rat lung, 48 hrs, 0.1 mg/kg
  (cmpd): 3044 ng/g and 6268 ng/g and 5097 ng/g
[4]; rat lung, 168 hrs, 0.1 mg/kg
  (cmpd): 2750 ng/g and 1255 ng/g and 1388 ng/g
[5]; plaque reduction, A/Panama/2007/99 (H3N2)
  EC50 PRA A/Pan: 0.032 ng/mL
Influenza B/Harbin/7/95; molar
  ID50 B/Harbin/7/95: 0.26 M
Influenza B/Harbin/7/95; up to 72 hours, MTT
  ID50 B/Harbin/7/95: 0.0003 µg/mL
Influenza A/Sydney/5/97
  ID50 A/Sydney/5/97: 0.1 ng/mL

## CCOC(=O)C1=C[C@@H](OC(CC)CC)[C@H](NC(C)=O)[C@@H](N)C1 [Oseltamivir]
[2]; MDCK, plaque reduction, A/New Caledonia/20/99 (H1N1), read-out: EC50 PRA A/New
  EC50: 0.23 ng/mL (≈ 0.736 nM)
B/Hong Kong/5/72 BVLV012
  EC50: 32 ng/mL (≈ 102 nM)
[7]
  EC50: 0.11 ng/mL (≈ 0.352 nM)
[3]; plaque reduction, B/Yamanashi/166/98, read-out: EC50 PRA B/Yam
  EC50: 0.7 ng/mL (≈ 2.24 nM)
[5]; MDCK, plaque reduction, A/Panama/2007/99 (H3N2), read-out: EC50 PRA A/Pan
  EC50: 0.3 ng/mL (≈ 0.96 nM)

## CC(=O)N[C@H]1[C@H]([C@H](OC(=O)NCCCCCCNC(=O)CN(CCN(CC(=O)NCCCCCCNC(=O)O[C@H](C(O)CO)[C@@H]2OC(C(=O)O)=C[C@H](NC(=N)N)[C@H]2NC(C)=O)CC(=O)NCCCCCCNC(=O)O[C@H](C(O)CO)[C@@H]2OC(C(=O)O)=C[C@H](NC(=N)N)[C@H]2NC(C)=O)CC(=O)NCCCCCCNC(=O)O[C@H](C(O)CO)[C@@H]2OC(C(=O)O)=C[C@H](NC(=N)N)[C@H]2NC(C)=O)[C@H](O)CO)OC(C(=O)O)=C[C@@H]1NC(=N)N (stereo partly drawn) [PCT AU01/01128 compound 3]
[4]; [9]
  Mean (PCT AU01/01128 compound 3): 1478 ng/g and 1368 ng/g and 1413 ng/g
  PCT AU01/01128 compound 3 ng/g: 1098 ng/g and 1352 ng/g and 681 ng/g and 784 ng/g and 2046 ng/g and 1605 ng/g and 698 ng/g and 1901 ng/g and 1507 ng/g and 655 ng/g and 1840 ng/g and 1744 ng/g
[4]; rat lung, co-dosed internal standard, 168 hrs
  PCT AU01/01128 compound 3 ng/g: 580 ng/g and 829 ng/g and 636 ng/g and 524 ng/g and 367 ng/g and 632 ng/g and 242 ng/g (2×) and 216 ng/g and 815 ng/g and 925 ng/g and 512 ng/g
[4]; rat, in vivo, rat lung, co-dosed internal standard, 48 hrs, read-out: Mean (PCT AU01/01128 compound 3)
  concentration at 48 h: 1040 ng/g
